Assay results: PubChem BioAssay AID588633 (Johns Hopkins Ion Channel Center, 2011)
The source made the active and inactive calls.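 The calls were made as follows: active = TRPV1 channel activation above 50%; inactive = activation of 50% or less.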

Target: Transient receptor potential cation channel subfamily V member 1 (Homo sapiens) (UniProt Q8NER1)
Assay: activation of human TRPV1 currents – automated patch clamp, HEK293 cells, confirmation (AID 588633)
Conditions: TRPV1-HEK293, automated patch clamp current; at 10 µM; stronger effect = higher value

Sequence of Transient receptor potential cation channel subfamily V member 1 (Homo sapiens) (Q8NER1 whole entry, looked up): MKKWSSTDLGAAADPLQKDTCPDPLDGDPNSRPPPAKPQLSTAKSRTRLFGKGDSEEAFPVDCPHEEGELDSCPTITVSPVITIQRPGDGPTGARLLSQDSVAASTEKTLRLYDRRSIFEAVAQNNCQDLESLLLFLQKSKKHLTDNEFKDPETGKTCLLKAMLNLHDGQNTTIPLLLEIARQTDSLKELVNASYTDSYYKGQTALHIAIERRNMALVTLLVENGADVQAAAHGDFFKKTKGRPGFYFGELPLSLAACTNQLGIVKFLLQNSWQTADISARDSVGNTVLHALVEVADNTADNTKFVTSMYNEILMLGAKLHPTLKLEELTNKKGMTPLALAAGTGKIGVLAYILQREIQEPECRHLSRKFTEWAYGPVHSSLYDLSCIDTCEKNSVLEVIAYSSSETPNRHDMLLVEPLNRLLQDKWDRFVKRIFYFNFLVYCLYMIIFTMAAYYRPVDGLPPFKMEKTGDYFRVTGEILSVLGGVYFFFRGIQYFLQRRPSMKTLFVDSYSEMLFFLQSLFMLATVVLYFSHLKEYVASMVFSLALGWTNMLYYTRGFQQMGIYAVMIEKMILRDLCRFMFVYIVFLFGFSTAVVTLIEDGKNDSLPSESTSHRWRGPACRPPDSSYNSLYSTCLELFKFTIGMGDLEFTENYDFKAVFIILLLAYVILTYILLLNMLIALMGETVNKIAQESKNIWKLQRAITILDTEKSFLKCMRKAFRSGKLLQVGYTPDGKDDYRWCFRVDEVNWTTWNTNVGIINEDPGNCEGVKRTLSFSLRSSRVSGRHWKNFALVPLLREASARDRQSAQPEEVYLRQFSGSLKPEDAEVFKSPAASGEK

Structure (SMILES) | activation
CC(=O)Nc1ccc(N=Cc2c(O)ccc3ccccc23)cc1 | 30% (inactive)
CC(C)c1ccc(CNNC(=O)c2ccccc2)cc1 | 156%
CC(C)c1ccc(NC(=O)N2CCC(c3nc4ccccc4o3)CC2)cc1 | 135%
COc1cccc(/C=N/n2c(SC)nnc2-c2ccccc2)c1O | 173%
COc1ccc(NC2c3ccccc3C(=O)N2Cc2ccc3c(c2)OCO3)cc1 (centres undefined) | 330%
CCN(CC)S(=O)(=O)c1ccc(/C=C/C(=O)Nc2ccc(N3CCOCC3)cc2)cc1 | 27.1% (inactive)
CC(=O)c1ccc(NC(=O)N2CCN(c3ccc(C)cc3)C(C)C2)cc1 (centres undefined) | 155%
Cc1ccc(Nc2ncnc3c2oc2ccccc23)cc1 | 200%
CC(C)CCSc1nc(N2CCOCC2)c2c(c1C#N)CC(C)(C)OC2 | 93.7%
CC(C)c1ccc(NCCC(=O)c2cccs2)cc1 | 57.6%
O=C(Nc1cccc([N+](=O)[O-])c1)c1ccc(-c2ccccc2)cc1 | 5.26% (inactive)
Cc1cc2c(NC(=O)Nc3ccc(C(C)(C)C)cc3)cccc2nn1 | 200%
CCc1ccc(NC(=O)Nc2ccc3c(c2)N(C)C(=O)CS3)cc1 | 28.7% (inactive)
O=C(NCc1cccnc1)C1CCC(c2ccc(Cl)cc2)CC1 (centres undefined) | 196%
CCCOc1ccc(/C=C/C(=O)N2CCOCC2)cc1 | 338%
O=C(/C=C\c1cn(-c2ccccc2)nc1-c1cccs1)N1CCOCC1 | 272%
O=C(/C=C\c1cn(-c2ccccc2)nc1-c1ccc2c(c1)OCCO2)N1CCOCC1 | 226%
Cc1ccc(Nc2nc(C)nc3c2oc2ccccc23)cc1 | 317%
CCC(C)(C)c1ccc(OCC(=O)Nc2ccncc2)cc1 | 440%
CCC(C)Sc1cccc(-c2nc3cc(C)ccn3c2NCc2ccccc2)c1 (centres undefined) | 63.1%
O=C(C1=C[C@@H](c2ccccc2)C[C@@H](OCc2ccc(CO)cc2)O1)N1CCCCCCC1 | 323%
CC(C)c1ccc(/C=C/C(=O)N2CCOCC2)cc1 | 242%
CCCSc1ccc(-c2nn(-c3ccccc3)cc2/C=C(/C#N)C(=O)N2CCOCC2)cc1 | 23.7% (inactive)
CC1CCN(C(=O)/C=C/c2ccc(C(C)(C)C)cc2)CC1 | 12.5% (inactive)

Structure (SMILES) | activation
CCC(C)Sc1cccc(-c2nc3ccc(Cl)cn3c2NCc2ccccc2)c1 (centres undefined) | 10.9% (inactive)
CC(OC(=O)CC1CCCCC1)C(=O)Nc1ccc(F)cc1 (centres undefined) | 77.3%
O=C(C1=NOC(CNc2ncc(C(F)(F)F)cc2Cl)C1)N1CCOCC1 (centres undefined) | 157%
CC1CCCN(c2ccc(C(=O)Nc3cccnc3)cc2[N+](=O)[O-])C1 (centres undefined) | 467%
COc1ccc(CNC(=S)NCc2ccc(Cl)cc2)cc1OC | 272%
CC(C)(C)c1ccc(C(=O)Nc2ccc3c(c2)C(=O)NC3=O)cc1 | 3.59% (inactive)
CC(C)(C)c1ccc(/C=C/C(=O)Nc2ccncc2)cc1 | 69.2%
O=C(Nc1ccccc1)c1cc(-c2ccccc2Cl)no1 | 40.5% (inactive)
O=C(c1cc(-c2ccc(Cl)cc2Cl)on1)N1CCOCC1 | 334%
CCN(c1ccc(NC(=O)c2ccc(Cl)nc2)cc1)C(C)C | 291%
Cc1ccc(NC(=O)c2cc3c(s2)CCCC3)cc1 | 402%
O=C(COC(=O)C12CC3CC(CC(C3)C1)C2)Nc1ccc2[nH]c(=O)[nH]c2c1 | 34.9% (inactive)
CCc1ccc(/C=C2\SC(N3CCOCC3)=NC2=O)cc1 | 199%
O=C(NCc1ccccc1)[C@@H]1C[C@H]1[C@@H](NP(=O)(c1ccccc1)c1ccccc1)c1ccccc1 | 97.1%
CCC(C)Sc1ccc(-c2nc3ccc(C)cn3c2NCc2ccccc2)cc1OC (centres undefined) | 27.4% (inactive)
Cc1ccc(N2CCN(C(=O)N3CCOCC3)CC2)c(C)c1 | 33.5% (inactive)
Cc1cc(C(=O)N/N=C/c2cccc([N+](=O)[O-])c2)c(C)n1-c1ccccc1 | 76.2%
CCCCCCCCC(=O)NCc1ccc(O)c(OC)c1 | 43.2% (inactive)
CC(C)(C)OC(=O)CNC(=O)c1[nH]cnc1C(=O)N[C@@H](Cc1ccccc1)C(=O)OC(C)(C)C | 28.7% (inactive)
COCCNC(=O)CCc1c(C)nc2c(c(C)nn2-c2ccc(C)cc2)c1C | 197%
CC(=O)c1ccc(N2CCN(C(=O)Nc3ccc(C(C)C)cc3)CC2)cc1 | 316%
O=C(Nc1ccc(N2CCCCCC2)cc1)c1cccc(S(=O)(=O)N2CCOCC2)c1 | 197%
Cc1ccc(Cn2nc(C(=O)Nc3ccc(Br)cc3)cc2C)cc1 | 26.9% (inactive)
Cc1ccc2nc(-c3ccccn3)cc(C(=O)Nc3ccc4c(c3)OCO4)c2c1 | 1.55% (inactive)

Structure (SMILES) | activation
COc1ccc(Nc2ncnc3c2oc2ccccc23)cc1 | 48.6% (inactive)
CCOC(=O)[C@H]1[C@H]2COc3ccc(Cl)cc3[C@@H]2N2C(=O)c3ccc(C)cc3NC(=O)[C@@]12C | 34% (inactive)
COC(=O)c1[nH]c2ccc(C)cc2c1NC(=O)CN1CCCC(C)(C)C1 | 61.2%
CCCCCCC1CCC(C(=O)N2CCOCC2)CC1 (centres undefined) | 17.2% (inactive)
CC(C)(C)c1ccc2c(c1)OC(C(=O)N/N=C\c1ccncc1)CO2 (centres undefined) | 182%
CC(C)(C)c1ccc(/C=N/OCC(=O)NCc2ccc(F)cc2)cc1 | 9.95% (inactive)
Cc1cnc(NC(=O)c2cc3c(s2)CCCC3)s1 | 32.4% (inactive)
Cc1ccc(C(=O)Nc2ccc(SC(F)F)cc2)s1 | 54.6%
Cc1cc(C(=O)NCCC2=CCCCC2)ccc1[N+](=O)[O-] | 369%
Oc1ccccc1N=Cc1c(O)ccc2ccccc12 | 10.6% (inactive)
Cc1ccc(S(=O)(=O)Cc2ccc(C(=O)NCCc3ccccc3)o2)cc1 | 50.9%
CCc1nc(Nc2ccc3c(c2)OCCO3)c2oc3ccccc3c2n1 | 111%
Cc1ncsc1CCC(=O)N1CCCC(Nc2ccc(C(C)C)cc2)C1 (centres undefined) | 335%
CCc1ccc2oc(C(=O)Nc3cccnc3)c(C)c2c1 | 4.84% (inactive)
O=C(CCc1ccccc1)N1CCCC(Nc2ccc(F)cc2)C1 (centres undefined) | 585%
Cc1ccc(/C=N/Nc2nc(N3CCCCC3)nc(N3CCCCC3)n2)o1 | 148%
CC(C)(C)c1cc(CCC(=O)NCc2ccncc2)cc(C(C)(C)C)c1O | 265%
CC(C)(C)c1ccc(/C=C/C(=O)Nc2cccnc2)cc1 | 131%
CC(C)c1ccc(NC2CCCN(C(=O)c3ccco3)C2)cc1 (centres undefined) | 387%
COc1ccc(C(=O)Nc2ccc(C3=NNC(=O)CC3C)cc2NC(=O)c2ccc(OC)cc2)cc1 (centres undefined) | 51.6%
CCc1nc(Nc2ccccc2)c2oc3ccccc3c2n1 | 128%
O=C(NCCCc1ccccc1)c1ccc(F)cc1 | -2.6% (inactive)
CCCn1c(SC(C)C(=O)N2CCOCC2)nc2ccc(Br)cc2c1=O (centres undefined) | 253%
NS(=O)(=O)c1ccc(NC(=O)c2ccc3c(c2)CCCC3)cc1 | 23.2% (inactive)

Structure (SMILES) | activation
CC(C)(C)c1ccc(/C=C/C(=O)N2CCCCC2)cc1 | 420%
CC(=O)c1ccc(N2CCN(C(=O)Nc3ccc(Cl)cc3)CC2)cc1 | 6.07% (inactive)
CCCCCC1CCC(C(=O)N2CCOCC2)CC1 (centres undefined) | 57%
CC(C)(C)c1ccc(NC(=O)N2CCCN(c3ccc([N+](=O)[O-])cn3)CC2)cc1 | 287%
COc1ccc(Cn2nc(-c3ccccc3)c(N3CCCCC3)cc2=O)cc1 | 143%
CC(C)(C)c1ccc(C(=O)Nc2ccc(S(N)(=O)=O)cc2)cc1 | 378%
CS(=O)(=O)N1CCc2cc(C(=O)Nc3ccc(Br)cc3)ccc21 | 5.79% (inactive)
CC(=O)c1ccc(Nc2ncnc3c2oc2ccccc23)cc1 | 69.7%
Cc1nc(Nc2cccc(Cl)c2)c2oc3ccccc3c2n1 | 34.8% (inactive)
CC(C)(C)c1ccc(NC(=O)c2ccsc2)cc1 | 199%
Cc1cccn2c(=O)c3cc(C(=O)NCC4CCCO4)c(=N)n(Cc4ccc(F)cc4)c3nc12 (centres undefined) | 229%
O=C(Nc1cccnc1)c1ccc(-c2ccccc2)cc1 | 67%
CCN(CCNC(=O)c1ccc(C#N)cc1)c1cccc(C)c1 | 427%
COc1ccc(Nc2nc(C)nc3c2oc2ccccc23)cc1 | 419%
CC(C)(C)c1ccc(OCCNC(=O)Cc2ccc(F)cc2)cc1 | 39.6% (inactive)
CCOC(=O)c1sc(-c2ccccc2)cc1NC(=O)Nc1ccccc1 | 43.2% (inactive)
O=C(Nc1ccc(C(F)(F)F)cc1)c1ccc2ncsc2c1 | 145%
COc1ccc(NC(=O)CCCSc2nc(-c3ccco3)cc(C(F)(F)F)n2)cc1OC | 406%
Cc1cc2oc(C(=O)Nc3cccnc3)c(C)c2cc1C | 6.35% (inactive)
Cc1nc(Nc2cccc(F)c2)c2oc3ccccc3c2n1 | 58.3%
Cc1ccc(C2=NN(C)c3nc4ccccc4n3C2)cc1 | 105%
CC(C)(C)c1ccc(OCCCC(=O)N2CCOCC2)cc1 | 304%
